Experimental data reported in US20220348563A1, “KDM INHIBITORS AND USES THEREOF” (DANA-FARBER CANCER INSTITUTE, INC., priority 2019, published 2022).
Blank lines part the entries; values can stand above or below the molecule they belong to.

Assays:
[1] = target: T1, KDM3A (Homo sapiens, UniProt Q9Y4C1); assay: KDM3 AlphaScreen assay (Table 2, ASSAY 9); format: biochemical; details: for IC50: ASSAY 9
T1 sequence (Q9Y4C1 1-1321): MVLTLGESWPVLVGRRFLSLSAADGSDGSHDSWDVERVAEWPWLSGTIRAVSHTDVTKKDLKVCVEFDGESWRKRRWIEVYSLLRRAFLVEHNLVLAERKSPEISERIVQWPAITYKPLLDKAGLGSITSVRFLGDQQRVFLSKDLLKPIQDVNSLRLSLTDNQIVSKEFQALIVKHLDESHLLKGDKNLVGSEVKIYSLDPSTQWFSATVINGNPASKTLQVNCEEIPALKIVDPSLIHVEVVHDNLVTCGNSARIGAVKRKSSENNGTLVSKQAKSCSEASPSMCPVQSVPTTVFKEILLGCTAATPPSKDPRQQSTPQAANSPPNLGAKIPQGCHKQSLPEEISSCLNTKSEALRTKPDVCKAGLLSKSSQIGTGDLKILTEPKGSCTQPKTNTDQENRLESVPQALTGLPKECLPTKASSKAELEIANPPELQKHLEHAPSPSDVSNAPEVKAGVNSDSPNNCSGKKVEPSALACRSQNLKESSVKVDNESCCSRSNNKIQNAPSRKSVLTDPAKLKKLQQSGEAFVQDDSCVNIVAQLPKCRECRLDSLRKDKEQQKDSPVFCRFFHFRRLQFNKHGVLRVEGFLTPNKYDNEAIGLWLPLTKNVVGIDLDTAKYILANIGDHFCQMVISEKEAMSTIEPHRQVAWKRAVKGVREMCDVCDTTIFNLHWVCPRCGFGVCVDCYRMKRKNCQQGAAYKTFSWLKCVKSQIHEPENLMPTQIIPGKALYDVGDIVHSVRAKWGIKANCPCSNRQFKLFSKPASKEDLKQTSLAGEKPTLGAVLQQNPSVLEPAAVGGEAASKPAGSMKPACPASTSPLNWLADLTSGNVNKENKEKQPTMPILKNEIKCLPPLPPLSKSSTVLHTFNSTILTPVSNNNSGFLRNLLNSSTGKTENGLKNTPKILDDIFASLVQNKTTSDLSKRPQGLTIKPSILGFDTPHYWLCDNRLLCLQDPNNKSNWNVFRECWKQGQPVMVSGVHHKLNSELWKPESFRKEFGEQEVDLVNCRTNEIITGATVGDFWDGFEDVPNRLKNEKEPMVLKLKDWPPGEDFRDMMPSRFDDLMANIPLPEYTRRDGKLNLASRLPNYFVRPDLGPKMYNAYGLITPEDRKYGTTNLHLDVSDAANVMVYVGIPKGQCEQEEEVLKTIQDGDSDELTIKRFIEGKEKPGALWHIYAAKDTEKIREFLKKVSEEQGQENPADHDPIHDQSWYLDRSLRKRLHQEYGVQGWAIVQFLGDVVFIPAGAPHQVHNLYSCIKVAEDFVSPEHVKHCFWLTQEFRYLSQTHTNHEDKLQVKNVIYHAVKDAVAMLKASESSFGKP
Protocol: (§1) AlphaScreen assays were performed in 384-well plate format using white AlphaPlate™ (PerkinElmer®, USA), and transfer of pre-diluted compound (100 nL) was performed using a Janus® Workstation (PerkinElmer®, USA). All subsequent steps were carried out in assay buffer (50 mM 4-(2-hydroxyethyl)-1-piperazineethanesulfonic acid (HEPES), pH 7.5, 0.1% (wt/vol) bovine serum albumin (BSA) and 0.01% (vol/vol) Tween®20). In brief, 10 μL of assay buffer containing demethylase enzyme (2 nM Final) was pre-incubated for 15 min with dilutions of compound. The enzyme reaction was initiated by the addition of substrate (5 μL) consisting of L-ascorbic acid (100 μM Final), […] (OG) (5 μM Final), FAS (10 μM Final) and histone H3(1-21)K9Me3-GGK Biotin (100 nM Final). The enzyme reaction was allowed to proceed for 30 minutes and was stopped by the addition of 5 μL of assay buffer containing ethylenediaminetetraacetic acid (EDTA) (40 mM) and NaCl (1,200 mM). The final concentration of DMSO was 1%. Streptavidin donor beads (0.08 mg/ml) and protein-A-conjugated acceptor beads (0.08 mg/ml) were preincubated for 1 h with antibody to methyl mark (300 ng/mL Final), and the presence of histone H3 product methyl mark was detected using the preincubated AlphaScreen™ beads (5 μL). Detection was allowed to proceed for 2 h at room temperature, and the assay plates were read on the EnVision® 2104 plate reader. Data were normalized to the (no-enzyme) control, and the IC50 values were determined via nonlinear regression curve fit using GraphPad Prism 7.

[2] = target: KDM3B (Homo sapiens, UniProt Q7LBC6); assay: KDM3B AlphaScreen assay (Table 1); format: biochemical
Sequence of KDM3B (Q7LBC6 whole entry, species assumed): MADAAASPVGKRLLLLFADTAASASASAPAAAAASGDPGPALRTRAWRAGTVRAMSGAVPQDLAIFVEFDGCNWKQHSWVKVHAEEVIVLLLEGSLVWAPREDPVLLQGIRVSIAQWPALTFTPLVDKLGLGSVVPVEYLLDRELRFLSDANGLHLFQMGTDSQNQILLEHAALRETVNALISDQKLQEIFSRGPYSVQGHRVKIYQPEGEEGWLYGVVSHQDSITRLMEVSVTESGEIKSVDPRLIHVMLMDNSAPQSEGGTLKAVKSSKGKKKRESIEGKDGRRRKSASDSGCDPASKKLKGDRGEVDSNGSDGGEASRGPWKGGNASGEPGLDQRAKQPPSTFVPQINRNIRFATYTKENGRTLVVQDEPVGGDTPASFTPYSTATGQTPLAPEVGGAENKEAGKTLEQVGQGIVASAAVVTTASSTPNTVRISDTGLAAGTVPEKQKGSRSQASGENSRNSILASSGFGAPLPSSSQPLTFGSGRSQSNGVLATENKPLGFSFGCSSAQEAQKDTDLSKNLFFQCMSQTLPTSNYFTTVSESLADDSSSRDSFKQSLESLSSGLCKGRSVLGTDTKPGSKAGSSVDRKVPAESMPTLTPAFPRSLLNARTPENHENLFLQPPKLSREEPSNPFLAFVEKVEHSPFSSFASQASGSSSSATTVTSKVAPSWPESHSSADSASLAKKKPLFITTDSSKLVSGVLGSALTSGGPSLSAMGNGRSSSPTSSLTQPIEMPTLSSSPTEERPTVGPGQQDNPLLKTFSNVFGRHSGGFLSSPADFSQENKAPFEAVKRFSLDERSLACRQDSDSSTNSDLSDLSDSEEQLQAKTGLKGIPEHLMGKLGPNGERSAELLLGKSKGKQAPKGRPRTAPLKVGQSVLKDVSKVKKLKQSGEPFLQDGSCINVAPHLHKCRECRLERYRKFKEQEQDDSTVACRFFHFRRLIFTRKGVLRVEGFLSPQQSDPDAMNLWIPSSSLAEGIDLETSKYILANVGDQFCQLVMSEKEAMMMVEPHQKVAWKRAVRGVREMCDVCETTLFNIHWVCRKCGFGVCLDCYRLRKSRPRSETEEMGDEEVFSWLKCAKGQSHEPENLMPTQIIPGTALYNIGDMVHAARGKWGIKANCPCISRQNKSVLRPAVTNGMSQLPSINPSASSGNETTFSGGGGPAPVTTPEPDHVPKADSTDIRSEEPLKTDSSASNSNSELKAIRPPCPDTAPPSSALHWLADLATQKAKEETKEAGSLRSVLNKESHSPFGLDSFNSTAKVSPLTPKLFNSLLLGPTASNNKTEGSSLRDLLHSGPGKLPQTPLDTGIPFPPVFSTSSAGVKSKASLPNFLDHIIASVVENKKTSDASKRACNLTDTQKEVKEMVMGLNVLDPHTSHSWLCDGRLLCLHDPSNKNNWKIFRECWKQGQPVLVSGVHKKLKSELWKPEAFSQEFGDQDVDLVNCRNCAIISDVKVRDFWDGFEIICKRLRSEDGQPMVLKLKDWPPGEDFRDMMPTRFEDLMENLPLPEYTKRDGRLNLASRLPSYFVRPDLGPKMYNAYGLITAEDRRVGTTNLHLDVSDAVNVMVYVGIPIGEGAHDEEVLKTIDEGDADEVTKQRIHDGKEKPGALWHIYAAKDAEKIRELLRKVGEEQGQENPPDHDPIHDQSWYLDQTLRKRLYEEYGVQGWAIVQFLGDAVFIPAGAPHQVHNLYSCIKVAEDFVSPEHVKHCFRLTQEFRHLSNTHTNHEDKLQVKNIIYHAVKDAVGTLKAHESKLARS
Protocol: as §1, with “Detection was allowed to proceed for 2 h at room temperature, and the assay plates were read on the EnVision® 2104 plate reader.” left out
Data are expressed as IC50 (μM).

KDM3A inhibition, verdict in words on Table 2 [1]: potent KDM3A inhibitors
IC50 [1]: 7.65 µM
Structure (SMILES): CN(C)c1ccc(CNc2ccc(F)cc2C(=O)N2CCN(Cc3ccc(N(C)C)cc3)CC2)cc1 [Compound 5, (2-((4-(dimethylamino)benzyl)amino)-5-fluorophenyl)(4-(4-(dimethylamino)benzyl)piperazin-1-yl)methanone]

KDM3A inhibition, verdict in words on Table 2 [1]: potent KDM3A inhibitors
IC50 [1]: 33.6 µM
Structure (SMILES): CN(C)c1ccc(-c2ccc(OC3CCN(C(=O)c4cn(S(=O)(=O)c5ccccc5)c5ccccc45)CC3)nc2)cc1 [Compound 11]

IC50 ([2]; ASSAY 1): 27.9 µM
Structure (SMILES): CN(C)c1ccc(CCNC(=O)CCC(=O)N2CCC(Oc3ccc(C(F)(F)F)cn3)CC2)cc1 [JADA69, N-(4-(dimethylamino)phenethyl)-4-oxo-4-(4-((5-(trifluoromethyl)pyridin-2-yl)oxy)piperidin-1-yl)butanamide]

IC50 ([2]; ASSAY 1): 53 µM
Structure (SMILES): CN(C)c1ccc(CCNC(=O)CCC(=O)N2CCC(Oc3cc(-c4ccc(N(C)C)cc4)ccn3)CC2)cc1 [JADA84, N-(4-(dimethylamino)phenethyl)-4-(4-((4-(4-(dimethylamino)phenyl)pyridin-2-yl)oxy)piperidin-1-yl)-4-oxobutanamide]

IC50 ([2]; ASSAY 1): 8.78 µM
IC50 ([2]; ASSAY 2): 13.7 µM
IC50 ([2]; ASSAY 7): 9.79 µM
Structure (SMILES): CN(C)c1ccc(CCNC(=O)CCC(=O)N2CCC(Oc3ccc(-c4ccc(N(C)C)cc4)cn3)CC2)cc1 [JADA92, N-(4-(dimethylamino)phenethyl)-4-(4-((5-(4-(dimethylamino)phenyl)pyridin-2-yl)oxy)piperidin-1-yl)-4-oxobutanamide]

IC50 ([2]; ASSAY 3): 18.6 µM
Structure (SMILES): CN(C)c1ccc(CCCNC(=O)c2ccccc2C(=O)N2CCC(Oc3ccc(Br)cn3)CC2)cc1 [JADA133]

IC50 [1]: 16 µM
Structure (SMILES): CN(C)c1ccc(-c2ccc(OC3CCN(C(=O)c4ccccc4OC(=O)c4ccccc4O)CC3)nc2)cc1 [JADA196, 2-(4-((5-(4-(dimethylamino)phenyl)pyridin-2-yl)oxy)piperidine-1-carbonyl)phenyl 2-hydroxybenzoate]

KDM3B inhibition, verdict in words on Table 1 [2]: potent KDM3B inhibitors
IC50 ([2]; ASSAY 5): 4.78 µM
Structure (SMILES): CN(C)c1ccc(CCC(=O)Nc2ccc(F)cc2C(=O)N2CCC(Oc3ccc(-c4ccc(N(C)C)cc4)cn3)CC2)cc1 [KDM3-23, 3-(4-(dimethylamino)phenyl)-N-(2-(4-((5-(4-(dimethylamino)phenyl)pyridin-2-yl)oxy)piperidine-1-carbonyl)-4-fluorophenyl)propanamide]

IC50 ([2]; ASSAY 5): 10.9 µM
Structure (SMILES): CN(C)c1ccc(CCC(=O)Nc2ccc(F)cc2C(=O)N2CCC(Oc3ccc(-c4ccc(CN5CCOCC5)cc4)cn3)CC2)cc1 [KDM3-24]

IC50 ([2]; ASSAY 6): 74.3 µM
Structure (SMILES): CN(C)c1ccc(CCC(=O)Nc2ccc(F)cc2C(=O)N2CCC(Oc3cc(N4CCOCC4)ccn3)CC2)cc1 [KDM3-26, 3-(4-(dimethylamino)phenyl)-N-(4-fluoro-2-(4-((4-morpholinopyridin-2-yl)oxy)piperidine-1-carbonyl)phenyl)propanamide]

IC50 ([2]; ASSAY 6): 11.3 µM
Structure (SMILES): CN(C)c1ccc(CCC(=O)Nc2ccc(F)cc2C(=O)N2CCC(Oc3cc(N4CCCCC4)ccn3)CC2)cc1 [KDM3-27, 3-(4-(dimethylamino)phenyl)-N-(4-fluoro-2-(4-((4-(piperidin-1-yl)pyridin-2-yl)oxy)piperidine-1-carbonyl)phenyl)propanamide]

IC50 ([2]; ASSAY 6): 9.43 µM
IC50 ([2]; ASSAY 7): 8.26 µM
IC50 ([2]; ASSAY 8): 10.8 µM
Structure (SMILES): CCOC(=O)c1ccc(N)c(C(=O)N2CCC(Oc3cc(-c4ccc(N(C)C)cc4)ccn3)CC2)c1 [KDM3-31, ethyl 4-amino-3-(4-((4-(4-(dimethylamino)phenyl)pyridin-2-yl)oxy)piperidine-1-carbonyl)benzoate]

IC50 ([2]; ASSAY 7): 5.65 µM
Structure (SMILES): CN(C)c1ccc(CCNC(=O)/C=C\C(=O)N2CCC(Oc3ccc(-c4ccc(N(C)C)cc4)cn3)CC2)cc1 [KDM3-38, (Z)-N-(4-(dimethylamino)phenethyl)-4-(4-((5-(4-(dimethylamino)phenyl)pyridin-2-yl)oxy)piperidin-1-yl)-4-oxobut-2-enamide]

IC50 ([2]; ASSAY 7): 10.9 µM
IC50 ([2]; ASSAY 8): 19.2 µM
Structure (SMILES): CN(C)c1ccc(-c2ccc(OC3CCN(C(=O)c4ccccc4[N+](=O)[O-])CC3)nc2)cc1 [KDM3-39, (4-((5-(4-(dimethylamino)phenyl)pyridin-2-yl)oxy)piperidin-1-yl)(2-nitrophenyl)methanone]

IC50 ([2]; ASSAY 8): 22.4 µM
Structure (SMILES): CC(=O)Nc1ccc(C(=O)N2CCC(Oc3ccc(-c4ccc(N(C)C)cc4)cn3)CC2)c(N)c1 [KDM3-40, N-(3-amino-4-(4-((5-(4-(dimethylamino)phenyl)pyridin-2-yl)oxy)piperidine-1-carbonyl)phenyl)acetamide]

IC50 ([2]; ASSAY 8): 49.4 µM
Structure (SMILES): CN(C)c1ccc(-c2ccc(OC3CCN(C(=O)c4cc(C(=O)O)ccc4N)CC3)nc2)cc1 [KDM3-41, 4-amino-3-(4-((5-(4-(dimethylamino)phenyl)pyridin-2-yl)oxy)piperidine-1-carbonyl)benzoic acid]

IC50 ([2]; ASSAY 8): 11.8 µM
Structure (SMILES): CN(C)c1ccc(-c2ccc(OC3CN(C(=O)c4ccccc4[N+](=O)[O-])C3)nc2)cc1 [KDM3-42, (3-((5-(4-(dimethylamino)phenyl)pyridin-2-yl)oxy)azetidin-1-yl)(2-nitrophenyl)methanone]

IC50 ([2]; ASSAY 8): 61 µM
Structure (SMILES): CN(C)c1ccc(-c2ccnc(OC3CCN(C(=O)c4cc(C(=O)O)ccc4N)CC3)c2)cc1 [KDM3-43, 4-amino-3-(4-((4-(4-(dimethylamino)phenyl)pyridin-2-yl)oxy)piperidine-1-carbonyl)benzoic acid]

IC50 [1]: 13 µM
Structure (SMILES): CN(C)c1ccc(CNC(=O)/C=C\C(=O)N2CCC(Oc3ccc(-c4ccc(N(C)C)cc4)cn3)CC2)cc1 [KDM3-47, (Z)-N-(4-(dimethylamino)benzyl)-4-(4-((5-(4-(dimethylamino)phenyl)pyridin-2-yl)oxy)piperidin-1-yl)-4-oxobut-2-enamide]

IC50 [1]: 14 µM
Structure (SMILES): CN(C)c1ccc(CCC(=O)Nc2cc(F)ccc2C(=O)N2CCC(Oc3ccc(-c4ccc(N(C)C)cc4)cn3)CC2)cc1 [KDM3-51, 3-(4-(dimethylamino)phenyl)-N-(2-(4-((5-(4-(dimethylamino)phenyl)pyridin-2-yl)oxy)piperidine-1-carbonyl)-5-fluorophenyl)propanamide]
